Data published in patent US9290511B2, “Thieno-pyrimidines, useful as potassium channel inhibitors” (XENTION LIMITED, priority 2011, dated 2016).
pIC50: −log10 of the molar value.

Target: T1, Kir3.1/3.4 (Rattus norvegicus, UniProt P48548+P63251)
T1 construct: expressed in transfected cells
T1 sequence (P63251 1-501): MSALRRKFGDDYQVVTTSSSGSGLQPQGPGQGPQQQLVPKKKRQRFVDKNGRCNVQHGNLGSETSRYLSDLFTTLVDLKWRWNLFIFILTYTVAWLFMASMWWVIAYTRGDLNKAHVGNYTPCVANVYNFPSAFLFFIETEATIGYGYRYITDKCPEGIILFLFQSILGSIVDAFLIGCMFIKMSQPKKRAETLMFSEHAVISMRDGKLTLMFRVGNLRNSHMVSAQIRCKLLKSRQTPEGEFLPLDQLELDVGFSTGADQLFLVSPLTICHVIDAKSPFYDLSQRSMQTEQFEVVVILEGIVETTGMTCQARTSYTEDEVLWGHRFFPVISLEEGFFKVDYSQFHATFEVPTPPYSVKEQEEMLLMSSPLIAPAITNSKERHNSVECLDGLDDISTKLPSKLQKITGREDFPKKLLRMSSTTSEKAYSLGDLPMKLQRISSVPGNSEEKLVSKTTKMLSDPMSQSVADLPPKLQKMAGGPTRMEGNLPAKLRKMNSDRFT
T1 sequence (P48548 1-419): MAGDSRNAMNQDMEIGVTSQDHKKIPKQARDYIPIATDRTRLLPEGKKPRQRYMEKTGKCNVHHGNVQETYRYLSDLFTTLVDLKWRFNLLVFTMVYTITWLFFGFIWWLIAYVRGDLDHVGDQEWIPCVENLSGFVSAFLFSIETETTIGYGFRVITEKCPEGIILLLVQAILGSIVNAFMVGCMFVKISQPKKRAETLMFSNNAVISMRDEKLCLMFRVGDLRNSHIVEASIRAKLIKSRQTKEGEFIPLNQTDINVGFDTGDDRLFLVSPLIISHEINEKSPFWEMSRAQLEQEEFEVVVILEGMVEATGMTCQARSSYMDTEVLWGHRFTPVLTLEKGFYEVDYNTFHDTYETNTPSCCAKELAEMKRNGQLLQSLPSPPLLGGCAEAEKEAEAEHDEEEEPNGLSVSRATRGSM
Assay: Kir3.1/3.4 Electrophysiology Method (manual whole-cell patch clamp)
Format: cell-based
Conditions: Electrophysiology Method (TABLE 1)
How it was run: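 Manual whole-cell patch clamp on HEK293 cells stably expressing rat Kir3.1/3.4, with GTPγS in the pipette. Cells were held at −60 mV and stepped to +60 mV, then ramped to −140 mV every 10 s. Steady-state inhibition at −140 mV was measured after subtracting leak recorded in zero-K+ bath.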

| pIC50 | SMILES |
| --- | --- |
| > 6.30 | OCc1sc2ncnc(N3CCC(COCCN4CCCC4)CC3)c2c1-c1ccccc1 [Example 281, [5-phenyl-4-[4-(2-pyrrolidin-1-ylethoxymethyl)-1-piperidyl]thieno[2,3-d]pyrimidin-6-yl]methanol] |
| > 6.30 | CC(C)NCC1CCN(c2ncnc3scc(-c4ccccc4)c23)CC1 [Example 187] |
| > 6.30 | CC1CCN(CC2CC(c3ccccc3)N(c3ncnc4scc(-c5ccccc5)c34)C2)C1 (centres unmarked) [Example 198] |
| > 6.30 | COCCNc1nc(N2CCC(CN3CCCC(N(C)C)C3)CC2)c2c(-c3ccccc3)csc2n1 (centres unmarked) [Example 124] |
| > 6.30 | c1ccc(-c2csc3nccc(N4CCC(COCCN5CCCC5)CC4)c23)cc1 [Example 142, 3-phenyl-4-[4-(2-pyrrolidin-1-ylethoxymethyl)-1-piperidyl]thieno[2,3-b]pyridine] |
| 5.52 to 6.30 | OC1CCN(c2nc(NCCN3CCCC3)nc3scc(-c4ccccc4)c23)C1 (centres unmarked) [Example 189] |
| 5.00 to 5.52 | NC(=O)C1CCN(c2nc(N3CCOCC3)c3c(-c4ccccc4)csc3n2)C1 (centres unmarked) [Example 306] |
| 5.52 to 6.30 | c1ccc(-c2csc3ncnc(N4CCC(N5CCCCC5)C4)c23)cc1 (centres unmarked) [Example 181, d]pyrimidine] |
| > 6.30 | Fc1ccc(-c2csc3ncnc(N4CCC(COCCN5CCOCC5)CC4)c23)cc1 [Example 21, 4-[2-[[1-[5-(4-fluorophenyl)thieno[2,3-d]pyrimidin-4-yl]-4-piperidyl]methoxy]ethyl]morpholine] |
| > 6.30 | CN(C)C1CCN(CC2CCN(c3nc(N4CCC(C(N)=O)C4)nc4scc(-c5ccccc5)c34)CC2)CC1 (centres unmarked) [Example 235] |
| > 6.30 | F[C@@H]1CCN(CCOCC2CCN(c3ncnc4scc(-c5ccccc5)c34)CC2)C1 [Example 32, 4-[4-[2-[(3R)-3-fluoropyrrolidin-1-yl]ethoxymethyl]-1-piperidyl]-5-phenyl-thieno[2,3-d]pyrimidine] |
| 5.00 to 5.52 | NC(=O)C1CCN(c2nc(N3CC4CC3CO4)c3c(-c4ccccc4)csc3n2)C1 (centres unmarked) [Example 309] |
| > 6.30 | CN(C)C1CCCN(CC2CCN(c3ncnc4scc(-c5ccc(F)cc5)c34)CC2)C1 (centres unmarked) [Example 79, 1-[[1-[5-(4-fluorophenyl)thieno[2,3-d]pyrimidin-4-yl]-4-piperidyl]methyl]-N,N-dimethyl-piperidin-3-amine] |
| > 6.30 | COCCN(CCOC)CC1CCN(c2ncnc3scc(-c4ccccc4)c23)CC1 [Example 53, 2-methoxy-N-(2-methoxyethyl)-N-[[1-(5-phenylthieno[2,3-d]pyrimidin-4-yl)-4-piperidyl]methyl]ethanamine] |
| 5.52 to 6.30 | FC(F)(F)c1nc(N2CCOCC2)c2c(-c3ccccc3)csc2n1 [Example 336] |
| 5.52 to 6.30 | CN(CC1CCN(c2ncnc3scc(-c4ccccc4)c23)CC1)C1CCOC1 (centres unmarked) [Example 203] |
| 5.52 to 6.30 | O=C(NCCN1CCOCC1)C1CCCN(c2ncnc3scc(-c4ccccc4)c23)C1 (centres unmarked) [Example 285] |
| > 6.30 | c1nc(N2CCC(COCCN3CCCC3)CC2)c2c(-c3ccoc3)csc2n1 [Example 315] |
| 5.52 to 6.30 | CN(C)C(=O)c1cccc(-c2csc3ncnc(N4CCC(COCCN5CCCC5)CC4)c23)c1 [Example 332] |
| 5.52 to 6.30 | O=C(NCCO)c1sc2ncnc(N3CCC(COCCN4CCCC4)CC3)c2c1-c1ccccc1 [Example 280] |
| 5.52 to 6.30 | CC(C)c1c(C(=O)N(C)C)sc2ncnc(N3CCC(COCCN4CCCC4)CC3)c12 [Example 133] |
| 5.52 to 6.30 | FC(F)CNCC1CCN(c2ncnc3scc(-c4ccccc4)c23)CC1 [Example 52, 2,2-difluoro-N-[[1-(5-phenylthieno[2,3-d]pyrimidin-4-yl)-4-piperidyl]methyl]ethanamine] |

| pIC50 | SMILES |
| --- | --- |
| 5.52 to 6.30 | O=C1CN(CCOCC2CCN(c3ncnc4scc(-c5ccccc5)c34)CC2)CCN1 [Example 28, 4-[2-[[1-(5-phenylthieno[2,3-d]pyrimidin-4-yl)-4-piperidyl]methoxy]ethyl]piperazin-2-one] |
| > 6.30 | CN1CCC(NCC2CCN(c3ncnc4scc(-c5ccccc5)c34)CC2)CC1 [Example 97, 1-methyl-N-[[1-(5-phenylthieno[2,3-d]pyrimidin-4-yl)-4-piperidyl]methyl]piperidin-4-amine] |
| > 6.30 | c1ccc(-c2csc3ncnc(N4CCC(CN5CCC(N6CCCCC6)C5)CC4)c23)cc1 (centres unmarked) [Example 218] |
| > 6.30 | CC(C)Oc1ncccc1-c1csc2ncnc(N3CCC(COCCN4CCCC4)CC3)c12 [Example 328] |
| > 6.30 | N#Cc1sc2ncnc(N3CCC(COCCN4CCCC4)CC3)c2c1-c1ccccc1 [Example 167, 5-phenyl-4-[4-(2-pyrrolidin-1-ylethoxymethyl)-1-piperidyl]thieno[2,3-d]pyrimidine-6-carbonitrile] |
| > 6.30 | F[C@@H]1CCN(CCOCC2CCN(c3ncc4c(-c5ccccc5)csc4n3)CC2)C1 [Example 151] |
| > 6.30 | Nc1nc(N2CCC(COCCN3CCCC3)CC2)c2c(-c3ccccc3)csc2n1 [Example 314, 5-phenyl-4-[4-(2-pyrrolidin-1-ylethoxymethyl)-1-piperidyl]thieno[2,3-d]pyrimidin-2-amine] |
| > 6.30 | CCN(CC)C(=O)C1CCCN(c2nc(N3CCC(CN(C)C4CCN(C)C4)CC3)c3c(-c4ccccc4)csc3n2)C1 (centres unmarked) [Example 228] |
| > 6.30 | CC(C)NCC1CCN(c2ncnc3scc(C4CCCCC4)c23)CC1 [Example 196] |
| > 6.30 | Fc1ccc(-c2csc3nc(N4CCC(COCCN5CCCC5)CC4)ncc23)cc1 [Example 152] |
| > 6.30 | CN(CCC1CCCN1)CC1CCN(c2ncnc3scc(-c4ccccc4)c23)CC1 (centres unmarked) [Example 86, N-methyl-N-[[1-(5-phenylthieno[2,3-d]pyrimidin-4-yl)-4-piperidyl]methyl]-2-pyrrolidin-2-yl-ethanamine] |
| > 6.30 | COCC1CCN(c2nc(OC3CC4CC3CN4)nc3scc(-c4ccccc4)c23)CC1 (centres unmarked) [Example 307] |
| > 6.30 | COCC1CCN(c2nc(NCCN3CCCC3)nc3scc(-c4ccccc4)c23)CC1 [Example 175] |
| 5.52 to 6.30 | CN1CCC(N(C)CC2CCN(c3nc(N4CCCC4C(N)=O)nc4scc(-c5ccccc5)c34)CC2)C1 (centres unmarked) [Example 130] |
| 5.52 to 6.30 | CC(C)NC(=O)c1sc2ncnc(N3CCC(COCCN4CCCC4)CC3)c2c1C(C)C [Example 264] |
| 5.52 to 6.30 | c1ccc(-c2csc3ncnc(N4CC5C(COCCN6CCOCC6)C5C4)c23)cc1 (centres unmarked) [Example 38, 4-[2-[[3-(5-phenylthieno[2,3-d]pyrimidin-4-yl)-3-azabicyclo[3.1.0]hexan-6-yl]methoxy]ethyl]morpholine] |
| > 6.30 | CC(C)c1csc2ncnc(N3CC4CC3CC4OCCN3CC[C@@H](F)C3)c12 (some centres unmarked) [Example 295] |
| > 6.30 | c1ccc(-c2csc3ncnc(N4CC5CC4CC5OCCN4CCCC4)c23)cc1 (centres unmarked) [Example 284] |
| > 6.30 | c1ccc(-c2csc3nc(N4CCC(COCCN5CCCC5)CC4)nc(N4CCOCC4)c23)cc1 [Example 276] |
| > 6.30 | CN1CCCC1CCNCC1CCN(c2ncnc3scc(-c4ccccc4)c23)C1 (centres unmarked) [Example 204] |
| > 6.30 | CN(C)C1CCCN(CC2CCN(c3nc(N4CCC(C(N)=O)C4)nc4scc(-c5ccccc5)c34)CC2)C1 (centres unmarked) [Example 123] |

| SMILES | pIC50 |
| --- | --- |
| CC(C)NC1CC2CCC(C1)N2c1ncnc2scc(-c3ccccc3)c12 (centres unmarked) [Example 327, N-isopropyl-8-(5-phenylthieno[2,3-d]pyrimidin-4-yl)-8-azabicyclo[3.2.1]octan-3-amine] | > 6.30 |
| CN(C)C(=O)c1sc2ncnc(N3C4CCC3CC(COCCN3CCCC3)C4)c2c1-c1ccccc1 (centres unmarked) [Example 356] | > 6.30 |
| COc1ncccc1-c1csc2ncnc(N3C4CCC3CC(N(C)C3CCC3)C4)c12 (centres unmarked) [Example 351, N-cyclobutyl-8-[5-(2-methoxy-3-pyridyl)thieno[2,3-d]pyrimidin-4-yl]-N-methyl-8-azabicyclo[3.2.1]octan-3-amine] | > 6.30 |
| c1ccc(-c2csc3ncnc(N4C5CCC4CC(N4CCC4)C5)c23)cc1 (centres unmarked) [Example 326] | > 6.30 |
| CCc1nc(N2CCC(N(C)C)CC2)c2c(-c3ccccc3)csc2n1 [Example 370] | > 6.30 |
| c1ccc(-c2csc3nc(C4CC4)nc(N4C5CCC4CC(N4CCC4)C5)c23)cc1 (centres unmarked) [Example 322] | > 6.30 |
| COCC1CC2CCC(C1)N2c1nc(OC2CC3CC2CN3)nc2scc(-c3ccccc3)c12 (centres unmarked) [Example 352] | > 6.30 |
| COc1ncc(F)cc1-c1csc2ncnc(N3C4CCC3CC(NC3CCC3)C4)c12 (centres unmarked) [Example 346] | 5.52 to 6.30 |
| COc1ccccc1-c1csc2ncnc(N3C4CCC3CC(COCCN3CCCC3)C4)c12 (centres unmarked) [Example 362] | > 6.30 |
| CC(C)(C)NCC1CC2CCC(C1)N2c1ncnc2scc(-c3ccccc3)c12 (centres unmarked) [Example 333] | > 6.30 |
